According to patent US20240174693A1, “SOMATOSTATIN RECEPTOR SUBTYPE 4 (SSTR4) AGONISTS AND THEIR APPLICATIONS” (Humanwell Pharmaceutical US, priority 2022, published 2024):

How the values were obtained:
SSTR4 = target: T1, SSTR4 (Homo sapiens, UniProt P31391); assay: FLIPR assay for agonists, HEK293/Gα15/SSTR4 cells; format: cell-based; conditions: read-out: SSTR4 Agonist Activity in FLIPR Assay EC50
T1 construct: host or cells: HEK293/Gα15/SSTR4
Experimental: The study was carried out at HD Biosciences (Shanghai, China) according to the following steps.
Step 1: Test compounds were diluted to a 400×stock solution in DMSO in a 384-well plate.
Step 2: 1 μL of the compound solution was transferred from Step 1 to 79 μL of assay buffer, creating a 5×working solution in the 384-well plate using the Bravo method.
Step 3: HEK293/Gα15/SSTR1-5 cells were cultured in DMEM medium (10% FBS).
Step 4: When cells reached 80% confluence, the cells were separated using 0.25% trypsin-EDTA.
Step 5: The cell density was measured and the cells diluted to 1×10^6/mL using DMEM (10% FBS).
Step 6: 30 μL of cells were dispensed into each well of a Matrigel-coated 384-well plate (Corning 3764#) using a multi-channel pipette (30,000 cells per well) and cultured for 20-24 hours at 37° C. and 5% CO2.
Step 7: 10 μL of dye was added to each well in the cell plate prepared in Step 6.
Step 8: The dye and cells were incubated in the dark at 37° C. and 5% CO2 for 1 hour.
Step 9: After 1 hour, the FLIPR program was loaded, the pipette tips placed cell plate and compound plate (from Step 2) into the machine, and the run button was pressed. The program added 10 μL to 40 μL to the cell plate. FLIPR was used to read the plate at room temperature according to the specified settings and the data was saved.

In vivo PK study = conditions: po, 3 mg/kg p.o.
KM mice = assay: Acetic acid induced writhing test; format: in vivo; conditions: 30 mg/kg s.c.; for No. of writhing's: 0.6% acetic acid 15 min after dosing, 30-minute period; for Percentage of Inhibition / Significant compared to the model group: writhing
Experimental: Fifteen minutes after administration, a 0.6% acetic acid solution (5 mL/kg) was injected into the abdominal cavity. The mice were then placed in an observation box, and the number of writhing episodes was recorded within a 30-minute period. The assessment of pain intensity was based on the observation of the mice's writhing behavior.

SD rats = assay: SD rat carrageenan acute inflammation model; format: in vivo; conditions: SD rat carrageenan
Experimental: Using an electronic caliper for accuracy, the thickness of the rat's footpad was measured. Rats were then restrained, and 100 μl of 1% carrageenan was subcutaneously injected into the right hind footpad to induce inflammation, thereby establishing an acute inflammation model using carrageenan. Each compound was administered in advance according to the respective dosing time points. The swelling of the rat's foot was measured at various time points: before modeling (0 h) and after modeling (2, 4, 7 h). A comparison was made between footpad swelling before and after modeling. […] The results of the carrageenan-induced acute inflammation model experiment are depicted in FIG. 1.

T1 sequence (P31391 whole entry): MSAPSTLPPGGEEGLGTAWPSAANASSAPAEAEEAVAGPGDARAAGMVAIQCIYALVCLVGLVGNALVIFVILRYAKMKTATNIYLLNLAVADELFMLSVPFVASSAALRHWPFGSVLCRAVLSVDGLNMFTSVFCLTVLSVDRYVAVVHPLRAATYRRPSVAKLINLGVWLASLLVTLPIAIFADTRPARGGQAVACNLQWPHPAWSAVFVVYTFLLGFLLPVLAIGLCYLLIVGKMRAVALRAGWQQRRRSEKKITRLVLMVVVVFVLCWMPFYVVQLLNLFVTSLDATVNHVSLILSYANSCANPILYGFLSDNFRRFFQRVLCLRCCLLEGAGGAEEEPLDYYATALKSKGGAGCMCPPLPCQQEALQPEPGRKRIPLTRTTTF

## CC(C)(NC(=O)[C@@H]1[C@@H]2CNC[C@H]1C2)c1ncc2c(Br)cccn12 [Compound 3, (1R,5S,6s)-N-(2-(8-bromoimidazo[1,5-a]pyridin-3-yl)propan-2-yl)-3-azabicyclo[3.1.1]heptane-6-carboxamide]
SSTR4
  EC50: > 1000 nM

## CC(C)(NC(=O)[C@@H]1[C@@H]2C[C@H]1CN(C(=N)N)C2)c1nc(C2CC2)c2ccccn12 [Compound 22, (1R,5S,6r)-3-carbamimidoyl-N-(2-(1-cyclopropylimidazo[1,5-a]pyridin-3-yl)propan-2-yl)-3-azabicyclo[3.1.1]heptane-6-carboxamide]
In vivo PK study
  AUC(0-t): 1.3 ng·h/mL
  Cmax: 5.56 ng/mL
  MRT inf: 11.4 min
  Tmax: 11.4 min
KM mice
  No. of writhing's: 7 ± 2
  Percentage of Inhibition: 82.45 ± 5.13%
  Significant compared to the model group: Yes

## COc1ccc(-c2cccn3c(C(C)(C)NC(=O)[C@H]4[C@@H]5CNC[C@H]4C5)ncc23)cc1 [Compound 12, (1R,5S,6r)-N-(2-(8-(4-methoxyphenyl)imidazo[1,5-a]pyridin-3-yl)propan-2-yl)-3-azabicyclo[3.1.1]heptane-6-carboxamide]
KM mice
  No. of writhing's: 10
  Percentage of Inhibition: 54.16%
  Significant compared to the model group: Yes

## CC(C)C[C@H](CN)CC(=O)O [Pregabalin]
SD rats; 0 h (before modeling)
  Changes in Foot Swelling Rate (Mean ± SEM): 0%
  Foot Swelling Degrees (Mean ± SEM): 4.06 ± 0.07 mm
SD rats; 2 h after modeling
  Changes in Foot Swelling Rate (Mean ± SEM): 41.54 ± 1.45%
  Foot Swelling Degrees (Mean ± SEM): 5.74 ± 0.09 mm
SD rats; 4 h after modeling
  Changes in Foot Swelling Rate (Mean ± SEM): 35.68 ± 2.85%
  Foot Swelling Degrees (Mean ± SEM): 5.49 ± 0.09 mm
SD rats; 7 h after modeling
  Changes in Foot Swelling Rate (Mean ± SEM): 37.64 ± 2.63%
  Foot Swelling Degrees (Mean ± SEM): 5.58 ± 0.13 mm

## CC(C)(NC(=O)[C@@H]1[C@@H]2C[C@H]1CN(C(=N)N)C2)c1ncc2c(Cl)cccn12 [Compound 21, (1R,5S,6r)-3-carbamimidoyl-N-(2-(8-chloroimidazo[1,5-a]pyridin-3-yl)propan-2-yl)-3-azabicyclo[3.1.1]heptane-6-carboxamide]
KM mice
  No. of writhing's: 9
  Percentage of Inhibition: 71%
  Significant compared to the model group: Yes

## CC(=O)Oc1ccccc1C(=O)O [Aspirin]
SD rats; 0 h (before modeling)
  Changes in Foot Swelling Rate (Mean ± SEM): 0%
  Foot Swelling Degrees (Mean ± SEM): 4.08 ± 0.10 mm
SD rats; 2 h after modeling
  Changes in Foot Swelling Rate (Mean ± SEM): 33.44 ± 4.56%
  Foot Swelling Degrees (Mean ± SEM): 5.42 ± 0.11 mm
SD rats; 4 h after modeling
  Changes in Foot Swelling Rate (Mean ± SEM): 24.42 ± 6.86%
  Foot Swelling Degrees (Mean ± SEM): 5.05 ± 0.21 mm
SD rats; 7 h after modeling
  Changes in Foot Swelling Rate (Mean ± SEM): 19.72 ± 3.24%
  Foot Swelling Degrees (Mean ± SEM): 4.87 ± 0.07 mm
